From patent publication US7547521B2, “Heteromultimeric ion channel receptor and uses thereof” (McGill University, priority 2000, dated 2009)
Entries after “also recorded” stand apart in the source; their conditions may differ.

Key:
[1] = test system: homomultimeric (ASIC2A or ASIC3) and heteromultimeric (ASIC-2S.2) channels; assay: Proton-induced inward currents in oocytes expressing homomultimeric or heteromultimeric ASIC channels; format: cell-based; settings: human and rat ASIC2A, ASIC3 or ASIC-2S.2-expressing oocytes
Procedure: (§1) According to method 1 described above, nuclei of Xenopus oocytes are injected with ASIC2A and ASIC3 cDNAs separately subcloned into pcDNA3 expression vector (1-5 ng). Control oocytes are injected with H2O. Oocytes are maintained at 18° C. in modified Barth's solution. Proton-activated currents are measured by two-electrode voltage clamp 1-3 days after injection. During voltage clamp (−60 mV/−100 mV)), oocytes are bathed in 116 mM NaCl, 2 mM KCl, 1.8 mM CaCl2, 10 mM acetic acid and 5 mM Hepes (pH 7.4 with NaOH). To determine proton-gating, bath solution is quickly switched to a solution of pH<7.4 for 10 sec, then returned to bath solution for washout. The stimulating solution is prepared by lowering the pH of the original bath solution with hydrochloric acid. The osmolality of the solutions is verified with an osmometer and corrected with mannitol or choline chloride. To document ionic selectivity, NaCl is replaced with LiCl or KCl. Current-voltage relationships are determined by stepping from a holding potential of −60 mV to potentials between −100 and +60 mV for 10 seconds before and during stimulation with low pH solution. FIGS. 1A (human) and 1B (rat) compare proton-activated currents carried by homomultimeric ASIC2A and ASIC3 receptors to the heteromultimeric ASIC-2S.2 receptors (ASIC2a+3). […] Species differences are also noteworthy. Indeed, using human subunits, both the early fast and sustained currents are strongly potentiated, while in the case of rat, the major effect appears to be on the sustained current only.
As described in example 2, voltage clamped oocytes expressing the ASIC-2S.2 channels are used to screen for molecules capable of modulating, activating or inhibiting channel activity.

[2] = target: T1, human ASIC2S.2 (ASIC2A+3) receptors (Homo sapiens, UniProt Q16515+Q9UHC3, A14P/I85V/M358I/P13Q); assay: Two-electrode voltage clamp of proton-gated currents in Xenopus oocytes expressing human ASIC2S.2; format: cell-based; settings: 100 μM FMRFamide; normalised to maximal control current at pH 3
T1 construct: allowing RT-PCR amplified full length nucleic acids to be directionally subcloned into pcDNA3; expressed in transfected cells; host or cells: Xenopus laevis oocytes (nuclear injection of pcDNA3 cDNAs)
T1 sequence (Q16515 1-512): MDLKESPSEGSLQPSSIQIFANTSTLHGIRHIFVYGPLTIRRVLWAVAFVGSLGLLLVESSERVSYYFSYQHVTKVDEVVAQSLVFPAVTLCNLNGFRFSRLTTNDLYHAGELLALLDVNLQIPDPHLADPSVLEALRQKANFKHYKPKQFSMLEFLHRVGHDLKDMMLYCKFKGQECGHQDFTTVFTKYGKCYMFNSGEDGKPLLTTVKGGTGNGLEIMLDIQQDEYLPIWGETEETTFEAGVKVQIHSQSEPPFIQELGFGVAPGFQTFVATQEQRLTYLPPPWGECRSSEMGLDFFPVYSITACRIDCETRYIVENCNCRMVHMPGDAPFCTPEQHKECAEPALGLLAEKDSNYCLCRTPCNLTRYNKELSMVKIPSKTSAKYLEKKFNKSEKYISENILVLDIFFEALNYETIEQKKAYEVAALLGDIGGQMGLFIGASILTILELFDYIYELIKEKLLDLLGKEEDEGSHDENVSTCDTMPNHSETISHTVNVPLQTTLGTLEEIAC
T1 sequence (Q9UHC3 1-531 P13Q/A14P/I85V/M358I): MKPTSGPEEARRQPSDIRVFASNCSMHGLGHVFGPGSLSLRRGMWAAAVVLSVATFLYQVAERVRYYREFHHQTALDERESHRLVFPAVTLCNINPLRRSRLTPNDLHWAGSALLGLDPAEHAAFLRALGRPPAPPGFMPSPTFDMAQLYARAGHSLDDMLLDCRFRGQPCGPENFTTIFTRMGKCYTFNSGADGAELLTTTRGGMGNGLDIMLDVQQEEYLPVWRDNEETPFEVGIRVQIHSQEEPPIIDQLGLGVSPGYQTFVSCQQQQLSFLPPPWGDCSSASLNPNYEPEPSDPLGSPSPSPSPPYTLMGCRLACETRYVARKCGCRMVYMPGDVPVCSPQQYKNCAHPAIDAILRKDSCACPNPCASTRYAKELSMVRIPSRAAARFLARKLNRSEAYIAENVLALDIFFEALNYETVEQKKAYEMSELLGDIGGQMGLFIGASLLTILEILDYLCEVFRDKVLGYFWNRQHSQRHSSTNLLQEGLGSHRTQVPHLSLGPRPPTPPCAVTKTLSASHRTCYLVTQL
Procedure: as §1, with “Indeed, using human subunits, both the early fast and sustained currents are strongly potentiated, while in the case of rat, the major effect appears to be on the sustained current only.” left out

| Molecule | Effect on proton-induced inward currents [1] | Sensitivity and maximal response to acidification (pH dose-response curve) [2] | Effect on proton-induced inward currents ([1]; listed as gadolinium) |
| --- | --- | --- | --- |
| N=C(N)NC(=O)c1nc(Cl)c(N)nc1N [amiloride] | inhibitory effects; also recorded: antagonistic effects |  |  |
| FMRFamide |  | increased |  |
| [Gd+3] [gadolinium ions, gadolinium] | antagonistic effects |  | inhibitory effects |
